Earlier results, collected in paper PMC8597081, “Diphenylalanine Motif Drives Self‐Assembling in Hybrid PNA‐Peptide Conjugates” (Chemistry (Weinheim an Der Bergstrasse, Germany), 2021).

Details: N3-protonated cytosine; N7-protonated guanine
Protocol: Nevertheless, as it can be seen in the 1D spectra (Figure S12) even at 46.9 mM concentration, the absence of a signal at low field arising from the imino proton let speculate that guanine and cytosine are not paired.

Compound | pKa
Nc1cc[nH]c(=O)n1 [cytosine] | 4.2
Nc1nc2nc[nH]c2c(=O)[nH]1 [guanine] | 1.9–2.2
